In patent US6069160A, “Heteroatom-containing benzocyclopentane-oxazolidinones” (Bayer Aktiengesellschaft, priority 1995, dated 2000):
≈ marks a conversion by molar mass, not a printed value. Read-outs that look alike come from different tables or passages of the source.

Experiments:
Assay type in all cases: cell-based
[1] = test system: E. coli Neumann; assay: MIC by series dilution method; conditions: Escherichia coli
Description: (§1) The minimum inhibitory concentration (MIC) were determined by a series dilution method on Iso-Sensitest agar (Oxoid). For each test substance, a series of agar plates each comprising concentrations of the active compound decreasing by double dilution in each case was prepared. The agar plates were inoculated with a multipoint inoculator (Denley). Overnight cultures of the pathogens which had been diluted beforehand such that each inoculation point comprised about 10^4 colony-forming particles were used for the inoculation. The inoculated agar plates were incubated at 37° C. and the germ growth was read off after about 20 hours. The MIC value (μg/ml) indicates the lowest active compound concentration at which no growth was detectable with the naked eye.

[2] = test system: Psdm. Bonn; assay: MIC by series dilution method; conditions: 37° C., about 20 hours
Description: as §1

[3] = test system: Klebs. 57 USA; assay: MIC by series dilution method; conditions: 37° C., about 20 hours
Description: as §1

[4] = test system: Staph. 9TV; assay: MIC by series dilution method
Description: as §1, with “eye. […]” for “eye.”

[5] = test system: Staph. 133; assay: MIC by series dilution method
Description: as §1, with “eye. […]” for “eye.”

[6] = test system: Staph. 48N; assay: MIC by series dilution method
Description: as §1, with “eye. […]” for “eye.”

[7] = test system: Staph. 25701; assay: MIC by series dilution method
Description: as §1, with “eye. […]” for “eye.”

[8] = test system: Mycobacterium smegmacis DSM 43061; assay: MIC in microtiter plates (Mycobacterium); conditions: DSM43061, 37° C., 3 to 5 days
Description: (§2) The microtiter plates were incubated at 37° C. and read off after about 20 hours (Staph) or after 3 to 5 days (Mycobacterium). The MIC value (μg/ml) indicates the lowest concentration of active substance at which no growth was detectable.

[9] = test system: Mycobacterium smegmacis DSM 43464; assay: MIC in microtiter plates (Mycobacterium); conditions: DSM43464, 37° C., 3 to 5 days
Description: as §2

[10] = test system: Mycobacterium smegmacis DSM 43078; assay: MIC in microtiter plates (Mycobacterium); conditions: DSM43078, 37° C., 3 to 5 days
Description: as §2

[11] = test system: Mycobacterium smegmacis DSM 43465; assay: MIC in microtiter plates (Mycobacterium); conditions: DSM43465, 37° C., 3 to 5 days
Description: as §2

[12] = test system: Mycobacterium smegmacis DSM 43277; assay: MIC in microtiter plates (Mycobacterium); conditions: DSM43277, 37° C., 3 to 5 days
Description: as §2

[13] = test system: Mycobacterium smegmacis DSM 43299; assay: MIC in microtiter plates (Mycobacterium); conditions: DSM43299, 37° C., 3 to 5 days
Description: as §2

[14] = Staph. 9TV, 37° C., about 20 hours, read-out: MIC
[15] = Staph. 133, 37° C., about 20 hours, read-out: MIC
[16] = Staph. 48N, 37° C., about 20 hours, read-out: MIC
[17] = Staph. 25701, 37° C., about 20 hours, read-out: MIC
[18] = E. coli Neumann, 37° C., about 20 hours, read-out: MIC

SMILES | MIC ([1]; 20 h) | MIC [2] | MIC [3] | MIC ([4]; 20 h) | MIC ([5]; 20 h) | MIC ([6]; 20 h) | MIC ([7]; 20 h) | MIC [8] | MIC [9] | MIC [10] | MIC [11] | MIC [12] | MIC [13] | MIC [4, 14] | MIC [5, 15] | MIC [6, 16] | MIC [7, 17] | MIC [1, 18]
COP(=O)(NC[C@H]1CN(c2ccc3c(c2)sc(=O)n3C)C(=O)O1)OC [Example 17] | > 64 µg/mL | > 64 µg/mL | > 64 µg/mL | 8 µg/mL (≈ 20.7 µM) | 8 µg/mL (≈ 20.7 µM) | 8 µg/mL (≈ 20.7 µM) | 8 µg/mL (≈ 20.7 µM) | – | – | – | – | – | – | – | – | – | – | –
CC(=O)NC[C@H]1CN(c2ccc3c(c2)sc(=O)n3C)C(=O)O1 [Example 18] | > 64 µg/mL | > 64 µg/mL | > 64 µg/mL | – | – | – | – | 0.25 µg/mL (≈ 0.778 µM) | 1 µg/mL (≈ 3.11 µM) | 0.25 µg/mL (≈ 0.778 µM) | 0.5 µg/mL (≈ 1.56 µM) | 0.25 µg/mL (≈ 0.778 µM) | 1 µg/mL (≈ 3.11 µM) | 0.06 µg/mL (≈ 0.187 µM) | 0.25 µg/mL (≈ 0.778 µM) | 0.25 µg/mL (≈ 0.778 µM) | 0.25 µg/mL (≈ 0.778 µM) | –
CCn1c(=O)sc2cc(N3C[C@H](CNC(C)=O)OC3=O)ccc21 [Example 22] | > 64 µg/mL | > 64 µg/mL | > 64 µg/mL | – | – | – | – | – | – | – | – | – | – | 0.5 µg/mL (≈ 1.49 µM) | 1 µg/mL (≈ 2.98 µM) | 1 µg/mL (≈ 2.98 µM) | 1 µg/mL (≈ 2.98 µM) | –
CC(=O)NC[C@H]1CN(c2ccc3[nH]c(=O)oc3c2)C(=O)O1 [Example 24] | > 64 µg/mL | > 64 µg/mL | > 64 µg/mL | – | 8 µg/mL (≈ 27.5 µM) | – | – | – | – | – | – | – | – | 16 µg/mL (≈ 54.9 µM) | – | 16 µg/mL (≈ 54.9 µM) | 16 µg/mL (≈ 54.9 µM) | –
CC(=O)NC[C@H]1CN(c2ccc3c(c2)oc(=O)n3C)C(=O)O1 [Example 37] | – | 64 µg/mL (≈ 210 µM) | 64 µg/mL (≈ 210 µM) | – | – | – | – | – | – | – | – | – | – | 0.5 µg/mL (≈ 1.64 µM) | 1 µg/mL (≈ 3.28 µM) | 1 µg/mL (≈ 3.28 µM) | 1 µg/mL (≈ 3.28 µM) | 16 µg/mL (≈ 52.4 µM)
CC(=O)NC[C@H]1CN(c2ccc3c(c2)oc(=O)n3Cc2ccccc2)C(=O)O1 [Example 38] | > 64 µg/mL | > 64 µg/mL | > 64 µg/mL | – | – | – | – | – | – | – | – | – | – | 1 µg/mL (≈ 2.62 µM) | 4 µg/mL (≈ 10.5 µM) | 4 µg/mL (≈ 10.5 µM) | 4 µg/mL (≈ 10.5 µM) | –
CCOC(=O)Cn1c(=O)oc2cc(N3C[C@H](CNC(C)=O)OC3=O)ccc21 [Example 39] | > 64 µg/mL | > 64 µg/mL | > 64 µg/mL | – | – | – | – | – | – | – | – | – | – | 4 µg/mL (≈ 10.6 µM) | 4 µg/mL (≈ 10.6 µM) | 4 µg/mL (≈ 10.6 µM) | 4 µg/mL (≈ 10.6 µM) | –
CC(=O)NC[C@H]1CN(c2ccc3c(c2)oc(=S)n3C)C(=O)O1 [Example 43] | – | > 64 µg/mL | > 64 µg/mL | – | – | – | – | – | – | – | – | – | – | 0.125 µg/mL (≈ 0.389 µM) | 0.25 µg/mL (≈ 0.778 µM) | 0.125 µg/mL (≈ 0.389 µM) | 0.25 µg/mL (≈ 0.778 µM) | > 32 µg/mL
CCn1c(=S)sc2cc(N3C[C@H](CNC(C)=O)OC3=O)ccc21 [Example 44] | > 64 µg/mL | > 64 µg/mL | > 64 µg/mL | – | – | – | – | – | – | – | – | – | – | 0.5 µg/mL (≈ 1.42 µM) | 0.5 µg/mL (≈ 1.42 µM) | 0.5 µg/mL (≈ 1.42 µM) | 0.5 µg/mL (≈ 1.42 µM) | –
CC(=O)NC[C@H]1CN(c2ccc3c(c2)oc(=O)n3C(C)C)C(=O)O1 [Example 47] | – | > 64 µg/mL | 64 µg/mL (≈ 192 µM) | – | – | – | – | – | – | – | – | – | – | 0.25 µg/mL (≈ 0.75 µM) | 0.5 µg/mL (≈ 1.5 µM) | 0.5 µg/mL (≈ 1.5 µM) | 0.5 µg/mL (≈ 1.5 µM) | 32 µg/mL (≈ 96 µM)
Cn1c(=O)sc2cc(N3C[C@H](CNC(=O)C4CC4)OC3=O)ccc21 [Example 54] | – | – | – | – | – | – | – | 4 µg/mL (≈ 11.5 µM) | 16 µg/mL (≈ 46.1 µM) | 1 µg/mL (≈ 2.88 µM) | 4 µg/mL (≈ 11.5 µM) | 2 µg/mL (≈ 5.76 µM) | 4 µg/mL (≈ 11.5 µM) | – | – | – | – | –
CCC(=O)NC[C@H]1CN(c2ccc3c(c2)sc(=O)n3C)C(=O)O1 [Example 56] | 64 µg/mL (≈ 191 µM) | > 64 µg/mL | > 64 µg/mL | – | – | – | – | 1 µg/mL (≈ 2.98 µM) | 4 µg/mL (≈ 11.9 µM) | 1 µg/mL (≈ 2.98 µM) | 0.5 µg/mL (≈ 1.49 µM) | 0.25 µg/mL (≈ 0.745 µM) | 1 µg/mL (≈ 2.98 µM) | 0.25 µg/mL (≈ 0.745 µM) | 0.5 µg/mL (≈ 1.49 µM) | 0.5 µg/mL (≈ 1.49 µM) | 0.5 µg/mL (≈ 1.49 µM) | –
Cn1c(=O)sc2cc(N3C[C@H](CNC(=O)C4CCC4)OC3=O)ccc21 [Example 62] | > 64 µg/mL | > 64 µg/mL | > 64 µg/mL | – | – | – | – | – | – | – | – | – | – | 0.5 µg/mL (≈ 1.38 µM) | 1 µg/mL (≈ 2.77 µM) | 1 µg/mL (≈ 2.77 µM) | 1 µg/mL (≈ 2.77 µM) | –
COC(=O)NC[C@H]1CN(c2ccc3c(c2)sc(=O)n3C)C(=O)O1 [Example 70] | > 64 µg/mL | > 64 µg/mL | > 64 µg/mL | – | – | – | – | 0.25 µg/mL (≈ 0.741 µM) | 8 µg/mL (≈ 23.7 µM) | 0.125 µg/mL (≈ 0.371 µM) | 1 µg/mL (≈ 2.96 µM) | 0.5 µg/mL (≈ 1.48 µM) | 2 µg/mL (≈ 5.93 µM) | 0.5 µg/mL (≈ 1.48 µM) | 0.5 µg/mL (≈ 1.48 µM) | 0.5 µg/mL (≈ 1.48 µM) | 0.5 µg/mL (≈ 1.48 µM) | –
CCCCCn1c(=O)oc2cc(N3C[C@H](CNC(C)=O)OC3=O)ccc21 [Example 84] | 64 µg/mL (≈ 177 µM) | > 64 µg/mL | > 64 µg/mL | – | – | – | – | – | – | – | – | – | – | 0.5 µg/mL (≈ 1.38 µM) | 1 µg/mL (≈ 2.77 µM) | 1 µg/mL (≈ 2.77 µM) | 1 µg/mL (≈ 2.77 µM) | –
CC(=O)NC[C@H]1CN(c2ccc3c(c2)oc(=NC(=O)C2CC2)n3C)C(=O)O1 [Example 94] | 64 µg/mL (≈ 172 µM) | > 64 µg/mL | > 64 µg/mL | – | – | – | – | – | – | – | – | – | – | 0.25 µg/mL (≈ 0.671 µM) | 0.5 µg/mL (≈ 1.34 µM) | 0.5 µg/mL (≈ 1.34 µM) | 0.5 µg/mL (≈ 1.34 µM) | –
